Target: T1, CG15111 (Drosophila melanogaster, UniProt A1ZBH2)
T1 construct: gene Dmel\CG15111; full-length from adult fly cDNA, C-terminal FLAG tag, pRmHa3 vector, membrane fraction of transfected S2 cells
T1 sequence (A1ZBH2 1-393): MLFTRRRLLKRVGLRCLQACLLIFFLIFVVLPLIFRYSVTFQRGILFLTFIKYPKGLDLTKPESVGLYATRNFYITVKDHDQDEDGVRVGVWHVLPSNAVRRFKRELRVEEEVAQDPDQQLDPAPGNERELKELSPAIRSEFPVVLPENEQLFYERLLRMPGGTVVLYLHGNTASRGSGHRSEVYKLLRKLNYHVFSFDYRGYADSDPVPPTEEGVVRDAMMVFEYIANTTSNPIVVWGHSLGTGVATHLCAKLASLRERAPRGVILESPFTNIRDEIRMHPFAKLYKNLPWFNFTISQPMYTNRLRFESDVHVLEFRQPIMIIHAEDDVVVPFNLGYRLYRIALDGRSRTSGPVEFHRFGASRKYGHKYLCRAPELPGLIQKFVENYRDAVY
Test: LC-MS lyso-PS lipase assay, release of C17:[…] FFA
Format: biochemical
Conditions: 100 uM substrate, 20 ug membrane fraction of S2 cells

Compound: CCCCCC/C=C\CCCCCCCCC(=O)OC[C@@H](O)COP(=O)(O)OC[C@H](N)C(=O)O [C17:1 lyso-PS]
- LC-MS lyso-PS lipase assay, release of C17:1 FFA: WT CG15111 had robust lyso-PS lipase activity

Source: publication doi:10.1101/2025.02.19.639194v1, “Bioinformatics analysis identifies sequence determinants of enzymatic activity for the PHARC associated lipase ABHD12” (biorxiv, 2025)
